Source: article PMC11571207, “Stereorandomized Oncocins with Preserved Ribosome Binding and Antibacterial Activity” (Journal of Medicinal Chemistry, 2024)
≈ marks a conversion by molar mass, not a printed value. Like-named read-outs stand apart in the source and are kept apart here. Non-standard residues stand in square brackets, D forms with d. Residues, ends and D or L forms follow the SMILES beside them.

How the values were obtained:
E. cloacae = assay: microbe, parasite or virus in culture; details: for MIC E. cloacae: supplement CSV
Summary of the method: (§1)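 Minimal inhibitory concentrations come from broth microdilution in MH medium, with a top peptide concentration of 64 μg/mL halved serially.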

K. pneumoniae OXA-48 = assay: microbe, parasite or virus in culture; details: for MIC K. pneumoniae OXA-48: supplement CSV
Summary of the method: as §1

[1] = tested on: P. aeruginosa PA14 2P4 (pmrB); assay: microbe, parasite or virus in culture; details: for MIC P. aeruginosa PA14 2P4: supplement CSV
Summary of the method: as §1

P. aeruginosa PA14 = assay: microbe, parasite or virus in culture; details: for MIC P. aeruginosa PA14: supplement CSV
Summary of the method: as §1

P. aeruginosa ZEM-1A = assay: microbe, parasite or virus in culture; details: for MIC P. aeruginosa ZEM-1A: supplement CSV
Summary of the method: as §1

P. aeruginosa ZEM9A = assay: microbe, parasite or virus in culture; details: for MIC P. aeruginosa ZEM9A: supplement CSV
Summary of the method: as §1

E. coli BW25113 WT = details: Table S1, 16-20 h at 37 °C
Protocol: (§2) Minimum inhibitory concentration assay
(§3) Antimicrobial activity was assayed against P. aeruginosa PAO1, K. pneumoniae NCTC418, E. coli W3110, A. baumannii ATCC 19606, methicillin-resistant S. aureus COL (MRSA), and for selected peptides on P. aeruginosa PA14 and the polymyxin-B-resistant derivative PA14 2P4, as well as the clinical isolates ZEM-1A and ZEM9A, K. pneumoniae OXA-48, S. aureus Newman, Enterobacter cloacae and Burkholderia cenocepacia. The minimal inhibitory concentration (MIC) was determined by using broth microdilution method. A colo ny of bacteria was picked and grown in Luria-Bertani (LB) medium overnight at 37°C. For E. coli BW25113 sbmA::kan the medium was supplemented with 25 mg/L of kanamycin. The next day, the culture was then regrown in LB medium to log phase (OD600 = 0.6 to 0.8), which lasted approximately 4 h, and diluted to an OD600 of 0.022 in the desired medium. Stock solutions of 1 mg/mL of the samples were prepared in sterilized milliQ water and diluted to the beginning concentration of 64 μg/mL in 300 μL Mueller Hinton (MH)-medium. The diluted samples were added to first well of 96-well microtiter plate (TPP, untreated, Faust Laborbedarf, AG, Schaffhausen) and diluted serially by ½. Finally, 4 μL of the bacterial suspension was inoculated into the sample solutions (150 μL/well) with a final inoculation of about 5∙10^5 CFU/mL. The plates were then incubated at 37°C for 15-18h. For each assay, sterility (broth only) and growth control (broth with bacterial inoculum, without antibiotics) were checked with two columns in the plate. The next day, 15 μL of 3-(4,5-dimethylthiazol-2-yl)-2,5-diphenyltetrazolium bromide (MTT) was added to each well of the plate, such a way that MIC was defined as the lowest concentration of the peptide that inhibited visible growth of the tested […]
(§4) Table S1. Activity of stereorandomized and diastereomeric oncocins against E. coli BW25113 WT and BW25113 sbmA::kan mutant in full and 12.5% MH, at pH 7.4. […]
(§5) a) Minimum inhibitory concentration (MIC, μg/mL) was determined on E. coli BW25113 WT and […]

[2] = tested on: E. coli BW25113 sbmA::kan; details: Table S1, sbmA::kan mutant, 16-20 h at 37 °C
Protocol: as §2, §3, §4, §5

[3] = tested on: P. aeruginosa PA14 4.13 (phoQ); details: for MIC P. aeruginosa PA14 4.13: supplement CSV
human red blood cells = assay: Hemolysis assay, minimum hemolytic concentration
[4] = polymyxin B resistant strain, 12.5% MHB pH 7.4, 16–20 h at 37 °C
[5] = polymyxin B resistant strain, full MHB pH 7.4, 16–20 h at 37 °C
[6] = 12.5% Müller-Hinton medium pH 7.4
[7] = full Müller-Hinton medium pH 7.4

## CC[C@@H](C)[C@@H](NC(=O)[C@@H](CCCNC(=N)N)NC(=O)[C@@H](CCCNC(=N)N)NC(=O)[C@H]1CCCN1C(=O)[C@H]1CCCN1C(=O)[C@@H](CCCNC(=N)N)NC(=O)[C@H]1CCCN1C(=O)[C@@H](CCCNC(=N)N)NC(=O)[C@H]1CCCN1C(=O)[C@@H](CC(C)C)NC(=O)[C@@H](Cc1ccc(O)cc1)NC(=O)[C@H]1CCCN1C(=O)[C@H]1CCCN1C(=O)[C@@H](CCCCN)NC(=O)[C@@H](CC(=O)O)NC(=O)[C@H](N)C(C)C)C(=O)N[C@H](Cc1ccc(O)cc1)C(=O)N[C@H](CC(N)=O)C(=O)N[C@H](CCCNC(=N)N)C(N)=O [D-Onc] (H-[dV][dD][dK][dP][dP][dY][dL][dP][dR][dP][dR][dP][dP][dR][dR][dI][dY][dN][dR]-NH2)
E. cloacae; 12.5% MHB pH 7.4, 16–20 h at 37 °C
  MIC E. cloacae, 12.5% MHB: 16 µg/mL (≈ 6.69 µM)
E. cloacae; full MHB pH 7.4, 16–20 h at 37 °C
  MIC E. cloacae, full MHB: > 64 µg/mL
E. cloacae; 12.5% MH pH 7.4
  MIC E. cloacae: 16 µg/mL (≈ 6.69 µM)
E. cloacae; full MH pH 7.4
  MIC E. cloacae: >64 µg/mL
K. pneumoniae OXA-48; carbapenem-resistant, 12.5% MHB pH 7.4, 16–20 h at 37 °C
  MIC K. pneumoniae OXA-48, 12.5% MHB: >64/64 μg/mL
K. pneumoniae OXA-48; carbapenem-resistant, full MHB pH 7.4, 16–20 h at 37 °C
  MIC K. pneumoniae OXA-48, full MHB: >64/64 μg/mL
K. pneumoniae OXA-48; 12.5% MH pH 7.4
  MIC K. pneumoniae OXA-48: 64 µg/mL (≈ 26.8 µM)
K. pneumoniae OXA-48; full MH pH 7.4
  MIC K. pneumoniae OXA-48: >64 µg/mL
[1]; [4]
  MIC P. aeruginosa PA14 2P4 (pmrB), 12.5% MHB: 8 µg/mL (≈ 3.35 µM)
[1]; [5]
  MIC P. aeruginosa PA14 2P4 (pmrB), full MHB: > 64 µg/mL
[1]; 12.5% MH pH 7.4
  MIC P. aeruginosa PA14 2P4: 8 µg/mL (≈ 3.35 µM)
[1]; full MH pH 7.4
  MIC P. aeruginosa PA14 2P4: >64 µg/mL
P. aeruginosa PA14; 12.5% MHB pH 7.4, 16–20 h at 37 °C, two different duplicate MIC determinations
  MIC P. aeruginosa PA14, 12.5% MHB: 32 µg/mL (≈ 13.4 µM)
P. aeruginosa PA14; full MHB pH 7.4, 16–20 h at 37 °C, two different duplicate MIC determinations
  MIC P. aeruginosa PA14, full MHB: > 64 µg/mL
P. aeruginosa PA14; 12.5% MH pH 7.4
  MIC P. aeruginosa PA14: 32 µg/mL (≈ 13.4 µM)
P. aeruginosa PA14; full MH pH 7.4
  MIC P. aeruginosa PA14: >64 µg/mL
P. aeruginosa ZEM-1A; clinical isolate, 12.5% MHB pH 7.4, 16–20 h at 37 °C, cells marked c: single measurement (in duplicates)
  MIC P. aeruginosa ZEM-1A, 12.5% MHB: >64/>64 ^c μg/mL
P. aeruginosa ZEM-1A; clinical isolate, full MHB pH 7.4, 16–20 h at 37 °C, cells marked c: single measurement (in duplicates)
  MIC P. aeruginosa ZEM-1A, full MHB: >64/>64 ^c μg/mL
P. aeruginosa ZEM-1A; 12.5% MH pH 7.4
  MIC P. aeruginosa ZEM-1A: >64 µg/mL
P. aeruginosa ZEM-1A; full MH pH 7.4
  MIC P. aeruginosa ZEM-1A: >64 µg/mL
P. aeruginosa ZEM9A; clinical isolate, 12.5% MHB pH 7.4, 16–20 h at 37 °C
  MIC P. aeruginosa ZEM9A, 12.5% MHB: 32 µg/mL (≈ 13.4 µM)
P. aeruginosa ZEM9A; clinical isolate, full MHB pH 7.4, 16–20 h at 37 °C
  MIC P. aeruginosa ZEM9A, full MHB: > 64 µg/mL
P. aeruginosa ZEM9A; 12.5% MH pH 7.4
  MIC P. aeruginosa ZEM9A: 32 µg/mL (≈ 13.4 µM)
P. aeruginosa ZEM9A; full MH pH 7.4
  MIC P. aeruginosa ZEM9A: >64 µg/mL
E. coli BW25113 WT; [6]
  MIC E. coli BW25113 WT, 12.5% MH: 16 µg/mL (≈ 6.69 µM)
E. coli BW25113 WT; [7]
  MIC E. coli BW25113 WT, Full MH: > 64 µg/mL
[2]; [6]
  MIC E. coli BW25113 SbmA-, 12.5% MH: 16 µg/mL (≈ 6.69 µM)
[2]; [7]
  MIC E. coli BW25113 SbmA-, Full MH: > 64 µg/mL
[3]; [4]
  MIC P. aeruginosa PA14 4.13 (phoQ), 12.5% MHB: 16 µg/mL (≈ 6.69 µM)
[3]; [5]
  MIC P. aeruginosa PA14 4.13 (phoQ), full MHB: > 64 µg/mL
[3]; 12.5% MH pH 7.4
  MIC P. aeruginosa PA14 4.13: 16 µg/mL (≈ 6.69 µM)
[3]; full MH pH 7.4
  MIC P. aeruginosa PA14 4.13: >64 µg/mL
Human red blood cells; 2.5% human red blood cells (final) in 10 mM phosphate, 150 mM NaCl, pH 7.4, 25 °C, 4 h, visual inspection
  Haemolysis on hRBC, MHC: >1000 µg/mL
Human red blood cells; supplement CSV
  MHC human red blood cells: >1000 µg/mL
